Measured values: PubChem BioAssay (NCI)
Where “and” joins values, the source holds several entries; their conditions need not be identical. Equal values may be shown once.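 96-well plates; 48 h exposure; 5 concentrations. Endpoints by linear interpolation between flanking doses. Not reached: highest tested concentration assigned. GI50 = concentration required for 50% inhibition of growth. At the TGI there is no net growth.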

Columns and labels:
Experiment in all cases: inhibition of tumour cell growth, NCI panel, 48 h
[1] = test system: ACHN renal
[2] = test system: BT-549 breast
[3] = test system: HL-60(TB) leukemia
[4] = test system: KM12 colon
[5] = test system: M14 melanoma
[6] = test system: NCI/ADR-RES ovarian
[7] = test system: OVCAR-4 ovarian
[8] = test system: RPMI-8226 leukemia
[9] = test system: SR leukemia
[10] = test system: U251 CNS

| SMILES | TGI [1] | TGI [2] | TGI [3] | TGI [4] | TGI [5] | TGI [6] [µM] | TGI [7] [µM] | TGI [8] | TGI [9] [µM] | TGI [10] | GI50 [2] [µM] | GI50 [4] [µM] | GI50 [5] [µM] | GI50 [7] [µM] | GI50 [8] | GI50 [10] [µM] | GI50 [1] [µM] | GI50 [3] [µM] | GI50 [6] [µM] | GI50 [9] [µM] |
| --- | --- | --- | --- | --- | --- | --- | --- | --- | --- | --- | --- | --- | --- | --- | --- | --- | --- | --- | --- | --- |
| CC1CC[C@@]2(OC1)OC1C[C@H]3[C@@H]4CCC5CC(O)CC[C@]5(C)[C@H]4C/C(=N\N(C)C)[C@]3(C)C1[C@@H]2C (stereo partly specified) | > 100 µM | 83.5 µM | 70.5 µM | 85.2 µM | > 100 µM | 41.4 | > 100 | > 100 µM | 60.6 | > 100 µM |  |  |  |  |  |  |  |  |  |  |
| COc1ccc(C[C@@H]2OC3(C=CC(=O)C=C3)O[C@H]2Cc2ccc(OC)cc2)cc1 | 1.16 µM | 0.505 µM | 5.04 µM | 5.04 µM | 2.53 µM | 2.64 | 2.14 | 0.653 µM | 1.84 | 2.75 µM |  |  |  |  |  |  |  |  |  |  |
| C=CC(Br)(CBr)CCC(Br)C(C)C (stereo unspecified) | 20.6 µM | 11.5 µM | 2.04 µM | 4.83 µM | 15.3 µM | 33.8 | 17.9 | 4 µM | 3.99 | 12.6 µM |  |  |  |  |  |  |  |  |  |  |
| CC(=O)C1(O)Cc2c(O)c3c(c(O)c2C(OC2CC(N)C(O)C(C)O2)C1)C(=O)c1ccccc1C3=O (stereo unspecified) | 0.097 µM and 0.0268 µM | 0.652 µM and 1.2 µM | 0.0806 µM and < 0.0108 µM | 0.713 µM and 0.227 µM | 0.605 µM and 0.158 µM | 4.88 | 0.996 | 0.35 µM and 0.0968 µM | 0.0813 | 0.419 µM and 0.13 µM | 0.0603 | 0.0167 | 0.0145 | 0.0663 | 0.0305 µM and < 0.0131 µM | < 0.0115 |  |  |  |  |
| CN(C)CCn1nc(N)c2nc3cc(C(F)(F)F)ccc3nc21 | > 100 µM | > 100 µM | > 100 µM | > 100 µM | > 100 µM | > 100 | > 100 | > 100 µM | > 100 | > 100 µM |  |  |  |  |  |  |  |  |  |  |
| OC(CN1CCCCC1)c1ccc(/C=C/c2ccc(Cl)cc2)cc1 (stereo unspecified) | > 100 µM | > 100 µM | > 100 µM | 40.3 µM | 41.9 µM | > 100 | > 100 | > 100 µM | > 100 | > 100 µM |  |  |  |  |  |  |  |  |  |  |
| COc1ccccc1NS(=O)(=O)c1ccc2ncn(NS(=O)(=O)c3ccc(Cl)cc3)c(=O)c2c1 | > 100 µM | > 100 µM | > 100 µM | > 100 µM | > 100 µM | > 100 | > 100 | > 100 µM | > 100 | > 100 µM |  |  |  |  |  |  |  |  |  |  |
| COc1ccc2[nH]c(O)c(/C=c3/cc4c(c(-c5ccc(F)cc5)n3)=Nc3ccccc3-4)c2c1 | 22.5 µM | 3.57 µM | > 100 µM | 4.46 µM | 3.85 µM | 5.63 | 4.12 | 32.9 µM | 6.65 | 3.26 µM | 1.8 | 1.78 | 1.98 | 1.8 | 3.73 µM | 1.68 | 10.3 | 9.2 | 2 | 1.07 |
| CC(C)c1cccc(C(C)C)c1OS(=O)(=O)NC(=O)OC(C(F)(F)F)C(F)(F)F | > 100 µM | > 100 µM | > 100 µM | > 100 µM | 64 µM | > 100 | > 100 | 44.8 µM | > 100 | > 100 µM |  |  |  |  |  |  |  |  |  |  |
| OC1c2ccccc2C(O)C2OC12 (stereo unspecified) | > 100 µM | > 100 µM | > 100 µM | > 100 µM | > 100 µM | > 100 | > 100 | > 100 µM | > 100 | > 100 µM |  |  |  |  |  |  |  |  |  |  |
| C=C1c2nc3ccccc3n2C=C(c2ccc(OC)cc2)N1c1ccc(OCCN2CCOCC2)cc1 | > 100 µM | > 100 µM | > 34.8 µM | > 100 µM | > 55.4 µM | > 100 | > 100 | 9.05 µM | > 55.2 | > 100 µM |  |  |  |  |  |  |  |  |  |  |
| CCOC(=O)CC[C@H](N)C(=O)N[C@H](Cc1ccc(N(CCCl)CCCl)cc1)C(=O)OCC | 2.68 µM | > 38 µM | 38.9 µM | 15.9 µM | 12.9 µM | 11.3 | 11.2 | > 73.9 µM | > 33.6 | > 33.7 µM |  |  |  |  |  |  | 0.499 |  |  |  |
| NC(N)=NCC(N)C(=O)O (stereo unspecified) | > 100 µM | > 100 µM | > 100 µM | > 100 µM | > 100 µM | > 100 | > 100 | > 100 µM | > 100 | > 100 µM |  |  |  |  |  |  |  |  |  |  |
| CC1(C)CC[C@]2(C(=O)O)[C@H](O)C[C@]3(C)C(=CC[C@@H]4[C@@]5(C)CC[C@H](OC6OC(C(=O)O)C(O)C(O)C6O)C(C)(C)[C@@H]5CC[C@]43C)[C@@H]2C1 (stereo partly specified) | > 100 µM | 34.2 µM | 44.9 µM | > 100 µM | > 100 µM | > 100 | 58.4 | > 100 µM | 46.7 | > 100 µM |  |  |  |  |  |  |  |  |  |  |
| C=CCC(CNC(=O)OCc1ccccc1)OC(=O)OCc1ccccc1 (stereo unspecified) | > 100 µM | > 100 µM | > 100 µM | > 100 µM | > 100 µM | > 100 | > 100 | 68.1 µM | 62 | > 100 µM |  |  |  |  |  |  |  |  |  |  |
| N=C(c1cccs1)C1(N2CCCCC2)CCCCC1 | 30.5 µM | 41.9 µM | 33.6 µM | 34.6 µM | 47.4 µM | 44.7 | 54.9 | 33.8 µM | 37.1 | 30 µM |  |  |  |  |  |  |  |  |  |  |
| CCCCNC(=S)Nc1nc(C(=O)NNC(=O)c2ccccc2)cs1 | 37.3 µM | 41.4 µM | > 100 µM | 36.9 µM | 28.6 µM | 64.2 | > 100 | > 100 µM | > 100 | > 100 µM |  |  |  |  |  |  |  |  |  |  |
| CCOP(=O)(OCC)C(C)(C)OC(=O)NC#N | > 100 µM | > 100 µM | > 100 µM | > 100 µM | > 100 µM | > 100 | > 100 | > 100 µM | > 100 | > 100 µM |  |  |  |  |  |  |  |  |  |  |
| CCCCCCCCCCCCCCCCP(=O)([O-])OCC[N+](C)(C)C | 31.9 µM | 22.6 µM | 17.9 µM | 9.33 µM | 28.9 µM | 34.7 | 34.7 | 34.2 µM | 29.4 | 31.2 µM |  |  |  |  |  |  |  |  |  |  |
| O=C(Oc1cccc(Cl)c1)c1cc2cc(CCl)ccc2oc1=O | 38.5 µM | > 100 µM | 82 µM | > 100 µM | 31.4 µM | > 100 | > 100 | > 100 µM | > 100 |  |  |  |  |  |  |  |  |  |  |  |
| COC(=O)C(Cc1nc2ccccc2[nH]c1=O)C(=O)C(=O)Nc1cc(C(F)(F)F)ccc1Cl (stereo unspecified) | 24.5 µM | 44.5 µM | 54.2 µM | 28.3 µM | 30.9 µM | 53.3 | 27.9 | 51.5 µM | > 100 | 66.6 µM |  |  |  |  |  |  |  |  |  |  |
| C=CCN1CCC2(CC1)NC(=O)c1ccccc1O2 | > 100 µM | > 100 µM | > 100 µM | > 100 µM | > 100 µM | > 100 | > 100 | > 100 µM | > 100 | > 100 µM |  |  |  |  |  |  |  |  |  |  |
| CCOP(=O)(OCC)C(Nc1ccc(F)cc1)c1ccccc1 (stereo unspecified) | > 100 µM | > 100 µM | > 100 µM | > 100 µM | > 100 µM | > 100 | > 100 | > 100 µM | > 100 | > 100 µM |  |  |  |  |  |  |  |  |  |  |
| O=C1OC(=O)C2C1C(c1ccccc1[N+](=O)[O-])C=C(c1ccco1)N2c1ccncc1 (stereo unspecified) | 3.24 µM | 35.4 µM | 5.63 µM | 4.65 µM | > 50.5 µM | 52.6 | 29.8 | 4.4 µM | 1.44 | 12 µM |  |  |  |  |  |  |  |  |  |  |
| CN(C)c1ccc(/C=c2/c3cc([N+](=O)[O-])ccc3n3c2cc(-c2ccccc2)[n+]3C)cc1 | 19.6 µM | 13 µM | 1.72 µM | 2.59 µM | 2.66 µM | > 100 | 8.33 | 1.72 µM | 3.02 | 1.32 µM |  |  |  |  |  |  |  |  |  |  |
| Nc1ccc(-c2nc3ccccc3s2)cc1Br | > 100 µM | > 100 µM | > 100 µM | > 100 µM | > 100 µM | > 100 | > 100 | > 100 µM | > 100 | > 100 µM |  |  |  |  |  |  |  |  |  |  |
